In patent US12636270B2, “Levothyroxine liquid formulations” (Fresenius Kabi USA, LLC, priority 2016, dated 2026):
Read-outs that look alike come from different tables or passages of the source.

What was measured:
[1] = tromethamine 10 mg/mL, normal saline
Protocol: (§1) The HPLC conditions were as follows: • Column: Waters […]™ C8 (5 μm, 4.6×150 mm) HPLC column • Mobile Phase A: Sodium heptanesulfonate/Acetonitrile/Water/Methanol/H3PO4 (4.023 g/800 mL/1600 mL/1600 mL/4 mL) • Mobile Phase B: Sodium heptanesulfonate/Acetonitrile/Water/Methanol/H3PO4 (2.013 g/1000 mL/100 mL/900 mL/2 mL) • Diluent: 0.01 N NaOH • Column temperature: 25° C. • Flow rate: 1.5 mL/min • Injection volume: 40-200 μL • Autosampler temperature: 5° C. • Detection: UV at 225 nm • Separation mode: Gradient Gradient Program:
The effect of pH on levothyroxine stability was further tested in samples having a pH 9.5-11.5. Separate samples containing levothyroxine sodium at a concentration of 20 mcg/mL or 100 mcg/mL, tromethamine at a concentration of 10 mg/mL in normal saline were adjusted to various pH levels. 5 mL of each sample was filled into 10 cc amber tubing vials, and the vials were stoppered with 20 mm stoppers under nitrogen. The samples were stored at temperatures of 25° C., 40° C., and 55° C. The samples stored at 55° C. were analyzed by HPLC at 1 W and 2 W of storage. The samples stored at 25° C. and 40° C. were analyzed by HPLC at 2M of storage using the HPLC conditions described hereinabove.

[2] = 4 W, 20 mcg/mL, tromethamine 10 mg/mL, 5.4 mg/mL sodium chloride in water
Protocol: Separate samples containing 20 mcg/mL levothyroxine sodium, 10 mg/mL tromethamine, 5.4 mg/mL sodium chloride, and sodium iodide at a concentration of 280 mcg/mL, 140 mcg/mL, or 6 mcg/mL in water were adjusted to various pH levels. 5 mL of each sample was filled into 10 cc flint molded vials, and the vials were stoppered with 20 mm stoppers under nitrogen.
The HPLC conditions were as follows: • Column: ACE Excel 3 C18-PFP, 4.6×150 mm HPLC column • Mobile Phase A: Sodium heptanesulfonate/Acetonitrile/Water/Methanol/H3PO4 (4.0 g/800 mL/1600 mL/1600 mL/4.0 mL) • Mobile Phase B: Sodium heptanesulfonate/Acetonitrile/Water/Methanol/H3PO4 (4.0 g/2000 mL/200 mL/1800 mL/4.0 mL) • Diluent: 0.01 N NaOH • Column temperature: 25° C. • Flow rate: 1.5 mL/min • Injection volume: 80 μL • Autosampler temperature: 5° C. • Detection: UV at 225 nm • Separation mode: Gradient Gradient Program: […]

[3] = 55° C., 1 W, 20 mcg/mL, glycerol 100 mg/mL, normal saline
Protocol: as §1
Separate samples containing levothyroxine sodium at a concentration of 20 mcg/mL and glycerol at a concentration of 100 mg/mL in normal saline were adjusted to pH levels of 7, 8, and 9. 5 mL of each sample was filled into 10 cc amber tubing vials, and the vials were stoppered with 20 mm stoppers under nitrogen. The samples were stored at a temperature of 55° C. The samples were analyzed by HPLC at 1 week of storage using the HPLC conditions described in Example 1. The results for liothyronine, largest unknown impurity, and total impurities as determined by peak area percent are set forth in Table 7.

[4] = 25° C., 2 M, pH 10.4, 20 mcg/mL
[5] = 25° C., 2 M, pH 10.4, 100 mcg/mL
[6] = 25° C., 2 M, pH 11.5, 20 mcg/mL
[7] = 40° C., 2 M, pH 10.4, 20 mcg/mL
[8] = 40° C., 2 M, pH 10.4, 100 mcg/mL
[9] = 40° C., 2 M, pH 11.5, 20 mcg/mL
[10] = 55° C., 1 W, pH 10.4, 20 mcg/mL
[11] = 55° C., 1 W, pH 10.4, 100 mcg/mL
[12] = 55° C., 1 W, pH 11.5, 20 mcg/mL
[13] = 55° C., 2 W, pH 10.4, 20 mcg/mL
[14] = 55° C., 2 W, pH 10.4, 100 mcg/mL
[15] = 55° C., 2 W, pH 11.5, 20 mcg/mL
[16] = 25° C., NaI 140 mcg/mL, pH 10.5
[17] = 25° C., NaI 280 mcg/mL, pH 10.5
[18] = 55° C., NaI 140 mcg/mL, pH 10.5
[19] = 55° C., NaI 280 mcg/mL, pH 10.5

In the case of `N[C@@H](Cc1cc(I)c(Oc2cc(I)c(O)c(I)c2)c(I)c1)C(=O)[O-].[Na+]` [Levothyroxine Na, 4-(4-hydroxy-3,5-diiodophenoxy)-3,5-diiodo-L-phenylalanine sodium], the “% Liothyronine” value ([1]; 25° C., 2 M, pH 9.5, 20 mcg/mL) is reported as 0.34%, the “% largest unknown impurity” value ([1]; 25° C., 2 M, pH 9.5, 20 mcg/mL) is reported as 0.11% and the “% total impurities” value ([1]; 25° C., 2 M, pH 9.5, 20 mcg/mL) is reported as 0.7%. For the same molecule, the “% Liothyronine” value [1, 4] was 0.17%, the “% largest unknown impurity” value [1, 4] was 0.20% and the “% total impurities” value [1, 4] was 0.6%. The “% Liothyronine” value [1, 5] was 0.23%, the “% largest unknown impurity” value [1, 5] was 0.11% and the “% total impurities” value [1, 5] was 0.6%. The “% Liothyronine” value [1, 6] was 0.34%, the “% largest unknown impurity” value [1, 6] was 15.4% and the “% total impurities” value [1, 6] was 19.6%. For the same molecule, the “% Liothyronine” value ([1]; 40° C., 2 M, pH 9.5, 20 mcg/mL) was 1.00%, the “% largest unknown impurity” value ([1]; 40° C., 2 M, pH 9.5, 20 mcg/mL) was 0.14% and the “% total impurities” value ([1]; 40° C., 2 M, pH 9.5, 20 mcg/mL) was 1.44%. The “% Liothyronine” value [1, 7] was 0.38%, the “% largest unknown impurity” value [1, 7] was 0.22% and the “% total impurities” value [1, 7] was 0.88%. The “% Liothyronine” value [1, 8] was 0.49%, the “% largest unknown impurity” value [1, 8] was 0.10% and the “% total impurities” value [1, 8] was 0.8%. For the same molecule, the “% Liothyronine” value [1, 9] was 0.31%, the “% largest unknown impurity” value [1, 9] was 9.2% and the “% total impurities” value [1, 9] was 12.1%. The “% Liothyronine” value ([1]; 55° C., 1 W, pH 9.5, 20 mcg/mL) was 0.9%, the “% largest unknown impurity” value ([1]; 55° C., 1 W, pH 9.5, 20 mcg/mL) was 0.09% and the “% total impurities” value ([1]; 55° C., 1 W, pH 9.5, 20 mcg/mL) was 1.2%. The “% Liothyronine” value [1, 10] was 0.2%, the “% largest unknown impurity” value [1, 10] was 0.09% and the “% total impurities” value [1, 10] was 0.5%. For the same molecule, the “% Liothyronine” value [1, 11] was 0.3%, the “% largest unknown impurity” value [1, 11] was 0.11% and the “% total impurities” value [1, 11] was 0.7%. For the same molecule, the “% Liothyronine” value [1, 12] was 0.1%, the “% largest unknown impurity” value [1, 12] was 0.08% and the “% total impurities” value [1, 12] was 0.4%. For the same molecule, the “% Liothyronine” value ([1]; 55° C., 2 W, pH 9.5, 20 mcg/mL) was 1.9%, the “% largest unknown impurity” value ([1]; 55° C., 2 W, pH 9.5, 20 mcg/mL) was 0.1% and the “% total impurities” value ([1]; 55° C., 2 W, pH 9.5, 20 mcg/mL) was 2.0%. For the same molecule, the “% Liothyronine” value [1, 13] was 0.4%, the “% largest unknown impurity” value [1, 13] was 0.1% and the “% total impurities” value [1, 13] was 0.9%. For the same molecule, the “% Liothyronine” value [1, 14] was 0.8%, the “% largest unknown impurity” value [1, 14] was 0.11% and the “% total impurities” value [1, 14] was 1.1%. The “% Liothyronine” value [1, 15] was 0.2%, the “% largest unknown impurity” value [1, 15] was 0.1% and the “% total impurities” value [1, 15] was 0.4%. The “% AOII” value ([2]; 25° C., NaI 6 mcg/mL, pH 10.5) was 0.33%, the “% total impurities” value ([2]; 25° C., NaI 6 mcg/mL, pH 10.5) was 1.9% and the “% AOII” value ([2]; 25° C., NaI 140 mcg/mL, pH 9.5) was 0.52%. The “% total impurities” value ([2]; 25° C., NaI 140 mcg/mL, pH 9.5) was 1.51%, the “% AOII” value ([2]; 25° C., NaI 140 mcg/mL, pH 10) was 0.55% and the “% total impurities” value ([2]; 25° C., NaI 140 mcg/mL, pH 10) was 1.64%. For the same molecule, the “% AOII” value [2, 16] was 0.6%, the “% total impurities” value [2, 16] was 1.75% and the “% AOII” value ([2]; 25° C., NaI 280 mcg/mL, pH 9.5) was 0.56%. The “% total impurities” value ([2]; 25° C., NaI 280 mcg/mL, pH 9.5) was 1.58%, the “% AOII” value ([2]; 25° C., NaI 280 mcg/mL, pH 10) was 0.55% and the “% total impurities” value ([2]; 25° C., NaI 280 mcg/mL, pH 10) was 1.61%. The “% AOII” value [2, 17] was 0.57%, the “% total impurities” value [2, 17] was 1.66% and the “% AOII” value ([2]; 55° C., NaI 6 mcg/mL, pH 10.5) was 0.99%. For the same molecule, the “% total impurities” value ([2]; 55° C., NaI 6 mcg/mL, pH 10.5) was 3.5%, the “% AOII” value ([2]; 55° C., NaI 140 mcg/mL, pH 9.5) was 0.59% and the “% total impurities” value ([2]; 55° C., NaI 140 mcg/mL, pH 9.5) was 3.6%. For the same molecule, the “% AOII” value ([2]; 55° C., NaI 140 mcg/mL, pH 10) was 0.61%, the “% total impurities” value ([2]; 55° C., NaI 140 mcg/mL, pH 10) was 2.86% and the “% AOII” value [2, 18] was 0.53%. For the same molecule, the “% total impurities” value [2, 18] was 2.49%, the “% AOII” value ([2]; 55° C., NaI 280 mcg/mL, pH 9.5) was 0.53% and the “% total impurities” value ([2]; 55° C., NaI 280 mcg/mL, pH 9.5) was 3.24%. For the same molecule, the “% AOII” value ([2]; 55° C., NaI 280 mcg/mL, pH 10) was 0.54%, the “% total impurities” value ([2]; 55° C., NaI 280 mcg/mL, pH 10) was 2.76% and the “% AOII” value [2, 19] was 0.53%. For the same molecule, the “% total impurities” value [2, 19] was 2.43%, the “% Liothyronine” value ([3]; pH 7) was 3.6% and the “% largest unknown impurity” value ([3]; pH 7) was 1.16%. The “% total impurities” value ([3]; pH 7) was 5.3%, the “% Liothyronine” value ([3]; pH 8) was 3.4% and the “% largest unknown impurity” value ([3]; pH 8) was 1.30%. The “% total impurities” value ([3]; pH 8) was 5.4%, the “% Liothyronine” value ([3]; pH 9) was 2.4% and the “% largest unknown impurity” value ([3]; pH 9) was 0.82%. For the same molecule, the “% total impurities” value ([3]; pH 9) was 3.8%.
